These results are taken from patent US9012635B2, “Pyridone amides and analogs exhibiting anti-cancer and anti-proliferative activities” (Deciphera Pharmaceuticals, LLC, priority 2013, dated 2015).

In test [1] the target is T1, c-MET kinase (Seq. ID No. 2) (Homo sapiens, UniProt P08581).
T1 construct: c-MET (c-MET residues: 956-1390, from Invitrogen, catalogue #PV3143, 6 nM); purchased Invitrogen PV3143
As to the kind of experiment: c-MET kinase assay (pyruvate kinase/lactate dehydrogenase coupled, A340). It is filed as biochemical. The conditions noted are these: enzymatic assay, 0.5 h pre-incubation, ATP 100 μM; read-out: cMET. Here is the method:
Activity of c-MET kinase (Seq. ID No. 2) was determined by following the production of ADP from the kinase reaction through coupling with the pyruvate kinase/lactate dehydrogenase system (e.g., Schindler et al. Science 2000, 289, pp. 1938-1942). In this assay, the oxidation of NADH (thus the decrease at A340 nm) was continuously monitored spectrophotometrically. The reaction mixture (100 μl) contained c-MET (c-MET residues: 956-1390, from Invitrogen, catalogue #PV3143, 6 nM), polyE4Y (1 mg/mL), MgCl2 (10 mM), pyruvate kinase (4 units), lactate dehydrogenase (0.7 units), phosphoenol pyruvate (1 mM), and NADH (0.28 mM) in 90 mM Tris buffer containing 0.25 mM DTT, 0.2% octyl-glucoside and 1% DMSO, pH 7.5. Test compounds were incubated with c-MET (Seq. ID No. 2) and other reaction reagents at 22° C. for 0.5 h before ATP (100 μM) was added to start the reaction. The absorption at 340 nm was monitored continuously for 2 hours at 30° C. on Polarstar Optima plate reader (BMG). The reaction rate was calculated using the 1.0 to 2.0 h time frame. Percent inhibition was obtained by comparison of reaction rate with that of a control (i.e., with no test compound). IC50 values were calculated from a series of percent inhibition values determined at a range of inhibitor concentrations using software routines as implemented in the GraphPad Prism software package.

Test [2] concerns A549 cells. Nature of the test: A549 cell migration assay (HGF-stimulated). The conditions noted are these: Homo sapiens, 40 ng/mL HGF, 48 h migration. It is filed as cell-based. On the procedure: A549 cells (catalog # CCL-185) were obtained from the American Type Culture Collection (ATCC, Manassas, Va.). Briefly, cells were grown in DMEM supplemented with 10% characterized fetal bovine serum (Invitrogen, Carlsbad, Calif.) at 37 degrees Celsius, 5% CO2, 95% humidity. Cells were allowed to expand until reaching 70-95% confluency at which point they were subcultured or harvested for assay use.
Forty thousand cells in DMEM supplemented with 10% characterized fetal bovine serum (FBS; Invitrogen, Carlsbad, Calif.) were added per well in a 96-well black clear bottom Oris Collagen-Coated cell migration plate containing cell seeding stoppers (Platypus Technologies, Madison, Wis.). Cells were then incubated overnight at 37 degrees Celsius, 5% CO2, 95% humidity. Cell seeding stoppers were removed creating an area for cell migration in the center of each well of the plate. Media was replaced with DMEM supplemented with 0.5% FBS. […] A plate mask (Platypus Technologies, Madison, Wis.) that obscures each well except for the area for cell migration in the center of the well was attached to the bottom of the migration plate and fluorescence was detected using a fluorescent plate reader. Data was analyzed using Prism software (Graphpad, San Diego, Calif.) to calculate IC50 values.

In test [3] the test system is MET activity in MKN-45 xenograft tumors. Nature of the test: pMET inhibition in a MKN-45 xenograft pharmacodynamic model. The class given is in vivo. As to conditions: nude mice, single oral 10 mg/kg dose, out to 8 h post dose. Here is the method: To examine the in vivo modulation of MET activity by compounds of formula I, MKN-45 xenograft tumors were excised at varying time points following a single oral dose. Briefly, MKN-45 cells were obtained from the Japan Health Sciences Foundation and expanded in RPMI medium which was supplemented with 20% FBS, 1% PSG (Penicillin/Streptomycin/Glutamine). The growth environment was maintained in an incubator with a 5% CO2 atmosphere at 37° C. Cells were harvested and re-suspended using 50% serum-free media and 50% Matrigel® to generate a stock concentration of 5×10^6 cells/mL.
Seven to 8 week old female Harlan nude mice (Hsd:AthymicNude-Fox1nu) were injected with 200 μL of cell suspension subcutaneously, just below the right axilla. All procedures carried out in this experiment were conducted in compliance with all the laws, regulations and guidelines of the National Institutes of Health (NIH). Treatment began when the mean tumor burden was approximately 300 mg. All mice were dosed with test compound by oral gavage. Plasma and tumor samples were collected from three mice at each timepoint 2, 4, 6, 8, 12, 18, and 24 hours after dosing. […] Plasma levels of MET inhibitors were determined by mass spectrometer analysis.

Test [4] relates to MKN-45 human gastric adenocarcinoma xenograft. Nature of the test: MKN-45 xenograft study. It is filed as in vivo. The conditions noted are these: nude mice, oral gavage, after 14 days. On the procedure:
To evaluate the in vivo anti-cancer activity compounds of formula I, a MKN-45 human gastric adenocarcinoma xenograft was employed. Briefly, MKN-45 cells were obtained from the Japan Health Sciences Foundation and expanded in RPMI medium which was supplemented with 20% FBS, 1% PSG. The growth environment was maintained in an incubator with a 5% CO2 atmosphere at 37° C. Cells were harvested and re-suspended using 50% serum-free media and 50% Matrigel® to generate a stock concentration of 5×10^6 cells/mL.
Seven to 8 week old female Harlan nude mice (Hsd:AthymicNude-Fox1nu) were injected with 200 μL of cell suspension subcutaneously, just below the right axilla. All procedures carried out in this experiment were conducted in compliance with all the laws, regulations and guidelines of the National Institutes of Health (NIH). Treatment began when the mean tumor burden was approximately 150 mg. All mice were dosed with test compound by oral gavage. Body weights and tumor measurements were recorded three times weekly. Tumor burden (mg) was estimated from caliper measurements by the formula for the volume of a prolate ellipsoid assuming unit density as: Tumor burden (mg)=(L×W2)/2, where L and W were the respective orthogonal tumor length and width measurements (mm). […]

Where a name gives a salt, the structure may show the parent alone.

T1 sequence (P08581 with tags, fused parts or gaps): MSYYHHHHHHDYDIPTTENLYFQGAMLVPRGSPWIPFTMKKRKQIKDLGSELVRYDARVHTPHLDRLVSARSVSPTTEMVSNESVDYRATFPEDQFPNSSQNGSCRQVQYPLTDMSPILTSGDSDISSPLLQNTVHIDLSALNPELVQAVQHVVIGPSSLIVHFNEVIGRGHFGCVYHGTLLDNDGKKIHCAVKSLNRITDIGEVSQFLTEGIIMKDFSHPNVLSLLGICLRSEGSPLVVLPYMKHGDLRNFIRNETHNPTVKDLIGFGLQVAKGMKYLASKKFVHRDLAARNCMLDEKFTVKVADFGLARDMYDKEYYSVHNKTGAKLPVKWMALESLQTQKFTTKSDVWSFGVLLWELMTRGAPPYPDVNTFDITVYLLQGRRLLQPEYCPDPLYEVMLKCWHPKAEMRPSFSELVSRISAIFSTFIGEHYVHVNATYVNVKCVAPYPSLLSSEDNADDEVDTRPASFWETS

Consider `O=C(Nc1cc(F)c(Oc2ccnc(-c3cnn(CCO)c3)c2)cc1F)c1cccn(-c2ccc(F)cc2)c1=O` [Example 3, N-(2,5-difluoro-4-((2-(1-(2-hydroxyethyl)-1H-pyrazol-4-yl)pyridin-4-yl)oxy)phenyl)-1-(4-fluorophenyl)-2-oxo-1,2-dihydropyridine-3-carboxamide hydrochloride], for which the IC50 in test [1] was no more than 100 nM.
As to `CCOc1ccn(-c2ccc(F)cc2)c(=O)c1C(=O)Nc1cc(F)c(Oc2ccnc(-c3cnn(C)c3)c2)cc1F` [Example 2, N-(2,5-difluoro-4-(2-(1-methyl-1H-pyrazol-4-yl)pyridin-4-yloxy)phenyl)-4-ethoxy-1-(4-fluorophenyl)-2-oxo-1,2-dihydropyridine-3-carboxamide], the IC50 in test [1] and in test [2] was no more than 100 nM in each case. The “inhibition of cFOS mRNA levels” value in test [3] was found to be 80%. For the same molecule, the “% T/C” value worked out at 19 % T/C in test [4] (10 mg/kg twice daily) and 12 % T/C in test [4] (30 mg/kg twice daily).
For the molecule `CCNc1ccn(-c2ccc(F)cc2)c(=O)c1C(=O)Nc1cc(F)c(Oc2ccnc(-c3cnn(C)c3)c2)cc1F` [Example 5, N-(2,5-difluoro-4-((2-(1-methyl-1H-pyrazol-4-yl)pyridin-4-yl)oxy)phenyl)-4-(ethylamino)-1-(4-fluorophenyl)-2-oxo-1,2-dihydropyridine-3-carboxamide], the IC50 in test [1] was no more than 100 nM.
With `Cn1cc(-c2cc(Oc3cc(F)c(NC(=O)c4cccn(-c5ccc(F)cc5)c4=O)cc3F)ccn2)cn1` [Example 1, N-(2,5-difluoro-4-((2-(1-methyl-1H-pyrazol-4-yl)pyridin-4-yl)oxy)phenyl)-1-(4-fluorophenyl)-2-oxo-1,2-dihydropyridine-3-carboxamide], the IC50 in test [1] is no more than 100 nM; in test [2], 100 to 1000 nM.
